Assay results published in ChEMBL document CHEMBL5108060, “Discovery, Characterization, and Structure-Based Optimization of Small-Molecule In Vitro and In Vivo Probes for Human DNA Polymerase Theta” (J Med Chem, 2022).

Key:
[1] = target: T1, DNA polymerase theta (Homo sapiens, UniProt O75417); test: Inhibition of recombinant human full length DNA polymerase theta using DNA substrate measured after 1 hrs in presence of dNTPs by plate reader assay
[2] = Inhibition of microhomology-mediated end joining in HEK293 cells; format: functional, cell-based, Homo sapiens
[3] = system: DLD-1; test: Antiproliferative activity against human BRCA-2 deficient DLD-1 cells; format: functional, cell-based
[4] = system: DLD-1; test: Antiproliferative activity against human DLD-1 cells; format: functional, cell-based
[5] = Metabolic stability in mouse liver microsomes assessed as intrinsic clearance; format: ADME, Microsome; conditions: read-out: CLH
[6] = Metabolic stability in human liver microsomes assessed as intrinsic clearance; format: ADME, Microsome; conditions: read-out: CLH
[7] = Lipophilicity, logD of compound; format: physicochemical; conditions: octanol/water
[8] = target: T1, DNA polymerase theta; test: Displacement of tracer from recombinant Tb-labeled DNA polymerase theta (unknown origin) assessed as end point Kd using DNA as substrate preincubated for 30 mins followed by compound addition for 2 hrs by HTRF assay
[9] = target: T1, DNA polymerase theta; test: Displacement of tracer from recombinant Tb-labeled DNA polymerase theta (unknown origin) using DNA as substrate preincubated for 30 mins followed by compound addition for 2 hrs by HTRF assay

T1 sequence (O75417 whole entry): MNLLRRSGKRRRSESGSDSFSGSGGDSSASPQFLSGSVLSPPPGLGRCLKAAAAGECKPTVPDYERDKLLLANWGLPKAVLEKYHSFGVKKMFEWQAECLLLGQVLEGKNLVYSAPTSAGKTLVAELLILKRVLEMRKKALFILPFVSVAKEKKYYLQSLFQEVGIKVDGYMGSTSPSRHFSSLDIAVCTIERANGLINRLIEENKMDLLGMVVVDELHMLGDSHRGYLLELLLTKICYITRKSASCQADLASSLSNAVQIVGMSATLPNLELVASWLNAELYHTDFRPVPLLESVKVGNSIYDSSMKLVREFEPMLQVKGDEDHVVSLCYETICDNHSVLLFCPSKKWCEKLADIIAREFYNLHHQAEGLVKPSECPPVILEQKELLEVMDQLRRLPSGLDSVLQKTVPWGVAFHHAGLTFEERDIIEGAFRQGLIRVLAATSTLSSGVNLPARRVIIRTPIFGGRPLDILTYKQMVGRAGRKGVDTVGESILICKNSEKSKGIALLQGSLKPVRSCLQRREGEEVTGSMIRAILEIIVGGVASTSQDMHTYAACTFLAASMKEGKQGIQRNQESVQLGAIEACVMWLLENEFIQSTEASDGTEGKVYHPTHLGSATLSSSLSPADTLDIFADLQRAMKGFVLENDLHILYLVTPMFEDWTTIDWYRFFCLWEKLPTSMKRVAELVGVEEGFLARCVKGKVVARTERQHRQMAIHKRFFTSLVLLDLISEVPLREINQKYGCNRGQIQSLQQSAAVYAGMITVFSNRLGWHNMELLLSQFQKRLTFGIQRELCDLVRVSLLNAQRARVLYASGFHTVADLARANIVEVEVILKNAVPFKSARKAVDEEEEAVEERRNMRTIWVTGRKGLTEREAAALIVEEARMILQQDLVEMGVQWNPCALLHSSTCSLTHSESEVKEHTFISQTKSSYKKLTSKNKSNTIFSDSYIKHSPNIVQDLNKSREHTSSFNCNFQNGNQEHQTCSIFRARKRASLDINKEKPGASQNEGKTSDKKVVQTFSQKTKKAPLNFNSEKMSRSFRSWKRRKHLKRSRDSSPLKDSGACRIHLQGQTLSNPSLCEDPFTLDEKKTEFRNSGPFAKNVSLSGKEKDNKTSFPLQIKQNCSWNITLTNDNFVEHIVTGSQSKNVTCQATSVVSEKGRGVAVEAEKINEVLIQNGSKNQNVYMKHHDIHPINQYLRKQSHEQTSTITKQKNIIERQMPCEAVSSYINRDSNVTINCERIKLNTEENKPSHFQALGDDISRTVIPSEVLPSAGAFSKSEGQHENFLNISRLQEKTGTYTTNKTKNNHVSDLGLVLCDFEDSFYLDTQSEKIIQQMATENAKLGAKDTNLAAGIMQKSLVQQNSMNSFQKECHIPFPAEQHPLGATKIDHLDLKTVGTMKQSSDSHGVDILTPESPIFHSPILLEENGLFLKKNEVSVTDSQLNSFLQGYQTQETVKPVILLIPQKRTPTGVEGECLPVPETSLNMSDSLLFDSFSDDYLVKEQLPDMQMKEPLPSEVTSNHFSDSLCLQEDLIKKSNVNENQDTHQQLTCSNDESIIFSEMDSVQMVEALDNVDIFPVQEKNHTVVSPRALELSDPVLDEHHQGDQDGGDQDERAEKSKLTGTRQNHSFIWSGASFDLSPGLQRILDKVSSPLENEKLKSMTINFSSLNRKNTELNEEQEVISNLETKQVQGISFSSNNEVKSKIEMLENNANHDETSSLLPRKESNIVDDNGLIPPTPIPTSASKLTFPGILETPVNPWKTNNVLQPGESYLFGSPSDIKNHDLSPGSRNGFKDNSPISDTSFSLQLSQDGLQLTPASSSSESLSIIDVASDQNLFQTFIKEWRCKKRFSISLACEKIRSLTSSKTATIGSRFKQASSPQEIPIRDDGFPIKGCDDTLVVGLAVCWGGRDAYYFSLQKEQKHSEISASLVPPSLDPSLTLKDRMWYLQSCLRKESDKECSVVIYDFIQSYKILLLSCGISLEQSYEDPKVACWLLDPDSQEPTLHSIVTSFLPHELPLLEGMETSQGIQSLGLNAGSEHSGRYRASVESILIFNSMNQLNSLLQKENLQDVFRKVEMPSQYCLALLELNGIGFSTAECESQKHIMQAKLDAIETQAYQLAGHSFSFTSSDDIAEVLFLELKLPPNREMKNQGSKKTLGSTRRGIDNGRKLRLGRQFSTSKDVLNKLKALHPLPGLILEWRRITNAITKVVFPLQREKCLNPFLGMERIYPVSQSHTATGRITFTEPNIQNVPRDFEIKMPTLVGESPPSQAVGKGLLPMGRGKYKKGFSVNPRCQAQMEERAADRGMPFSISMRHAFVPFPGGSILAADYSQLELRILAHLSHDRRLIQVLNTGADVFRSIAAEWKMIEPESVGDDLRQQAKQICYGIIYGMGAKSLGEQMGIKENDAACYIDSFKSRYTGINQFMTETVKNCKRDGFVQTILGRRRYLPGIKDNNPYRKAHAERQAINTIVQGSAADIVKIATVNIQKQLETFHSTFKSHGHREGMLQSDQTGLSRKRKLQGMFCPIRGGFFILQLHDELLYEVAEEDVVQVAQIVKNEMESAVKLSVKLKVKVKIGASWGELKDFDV

Row | SMILES | IC50 [1] | EC50 [3] | EC50 [4] | microsomal CLint [5] | other results
1 | Cc1cc(C(F)(F)F)cc(N2C(=O)C[C@@H](O)[C@H]2C(=O)N(C)c2ccc(F)c(Cl)c2)n1 | 5.9 nM | 2000 nM | > 12000 nM | 260 µL/min/mg | EC50 [2]: 255 nM
2 | CCN(C(=O)[C@H](C)Nc1nc(C)cc(C)c1C#N)c1cccc(C)c1 | 230 nM | – | – | – | –
3 | Cc1cc(C(F)(F)F)cc(N2C(=O)[C@@H](O)C[C@H]2C(=O)N(C)c2ccc(F)c(Cl)c2)n1 | – | – | – | 96 µL/min/mg | microsomal CLint [6]: 60 µL/min/mg
4 | Cc1cc(C(F)(F)F)cc(N2C(=O)[C@H](O)[C@H](O)[C@@H]2C(=O)N(C)c2ccc(F)c(Cl)c2)n1 | > 12000 nM | > 12000 nM | > 12000 nM | – | –
5 | CCN(C(=O)CNc1nc(C)cc(C)c1C#N)c1cccc(C)c1 | 1800 nM | – | – | – | –
6 | CCN(C(=O)[C@H](CO)Nc1nc(C)cc(C(F)(F)F)c1C#N)c1cccc(C)c1 | 79 nM | 11000 nM | > 12000 nM | – | logD [7]: 4; EC50 [2]: 255 nM; Kd [8]: 35 nM
7 | Cc1cc(C(F)(F)F)cc(N2C(=O)OC[C@H]2C(=O)N(C)c2cc(Cl)ccc2F)n1 | – | – | – | 157 µL/min/mg | –
8 | Cc1cc(C(F)(F)F)c(C#N)c(N2C[C@@H](O)C[C@H]2C(=O)N(C)c2ccccc2)n1 | – | 8000 nM | > 12000 nM | – | EC50 [2]: 400 nM; Kd [8]: 110 nM
9 | CCN(C(=O)[C@H](C)Nc1nc(C)cc(C(C)C)c1C#N)c1cccc(C)c1 | 49 nM | – | – | – | –
10 | Cc1cccc(N(C)C(=O)[C@@H]2C[C@H](O)CN2c2nccc(C(F)(F)F)c2C#N)c1 | – | 11500 nM | > 12000 nM | – | EC50 [2]: 1030 nM
11 | Cc1cc(C(F)(F)F)cc(N2C(=O)OC[C@H]2C(=O)N(c2ccc(F)c(Cl)c2)C(C)C)n1 | – | – | – | 48 µL/min/mg | logD [7]: 4.4
12 | CCN(C(=O)COc1cc(C)cc(C)n1)c1cccc(C)c1 | 4200 nM | – | – | – | –
13 | Cc1cc(C(F)(F)F)cc(N2C(=O)OC[C@H]2C(=O)N(C)c2cccc(Cl)c2)n1 | – | – | – | 410 µL/min/mg | –
14 | CCN(C(=O)[C@@H]1COCCN1c1nc(C)cc(C(F)(F)F)c1C#N)c1cccc(C)c1 | 2700 nM | – | – | – | –
15 | CCN(C(=O)[C@@H]1C[C@H](O)C(=O)N1c1cc(C(F)(F)F)cc(C)n1)c1ccc(F)c(Cl)c1 | – | – | – | 181 µL/min/mg | –
16 | CCN(C(=O)COc1cc(C(C)C)cc(C)n1)c1cccc(C)c1 | 400 nM | – | – | – | –
17 | Cc1cccc(N(C)C(=O)[C@@H]2C[C@H](O)CN2c2nc(C)cc(C)c2C#N)c1 | – | 4100 nM | > 12000 nM | – | Kd [9]: 19 nM; EC50 [2]: 280 nM; Kd [8]: 51 nM
18 | Cc1cccc(N(C)C(=O)[C@@H]2COC(=O)N2c2cc(C(F)(F)F)cc(C)n2)c1 | – | – | – | 580 µL/min/mg | logD [7]: 3.6
19 | CCN(C(=O)COc1nc(C)c(Br)c(C(F)(F)F)c1C#N)c1cccc(C)c1 | 400 nM | – | – | – | –
20 | CCN(C(=O)COc1nc(C)cc(C(F)(F)F)c1C#N)c1cccc(C)c1 | 500 nM | > 12000 nM | > 12000 nM | – | EC50 [2]: 680 nM; Kd [8]: 61 nM
21 | Cc1cc(C(F)(F)F)cc(N2C(=O)OC[C@H]2C(=O)N(C)c2ccc(F)c(Cl)c2)n1 | 15 nM | – | – | 138 µL/min/mg | –
